SMILES strings stand for the structures.

In one data set the test system is Rat. Briefly: Block of Conditioned Avoidance Responding (Rat) test (CAR). Type of data set: in vivo, Male, Fischer 344 rats. To be noted: for Loss of escape: % failures to escape (group mean), measure of general sedative potential, at CAR 15 mg/kg ip; for % CAR at 15 mg/kg: mean % change in CAR vs vehicle pretreatment day, 15 mg/kg ip, negative number = blockade of CAR. An excerpt:
The antipsychotic activity of the compounds of the invention may be determined by the Block of Conditioned Avoidance Responding (Rat) test (CAR), references being Cook, L. and E. Weidley in Ann. N.Y. Acad. Sci., 1957, 6, 740-752, and Davidson, A.B. and E. Weidley in Life Sci., 1976, 18, 1279-1284. A reading of -20% in the CAR test was generally taken to represent a minimum value for a compound to be designated as active at a given dose. In addition, the affinity of the compounds for several receptors found in the central nervous system was evaluated; the affinity for the D-2 (dopamine-2) receptors is also listed in Table 1. As modulation of this receptor is generally recognized to be beneficial in the treatment of schizophrenia (G. P. Reynolds Trends Pharmacol. Sci. 1992, 13, 116), affinity for this receptor indicates potential utility for the compounds. […] Block of Conditioned Avoidance Responding (Rat) Apparatus: Rat operant chambers, housed within sound attenuated booths, both from […] Instruments Ltd., were used in this test. The test chamber (8" H x […] D) is constructed of aluminum and plexiglass with floor grid bars of stainless-steel (1/8" O.D.) spaced 9/16" apart. A stainless-steel operation level 1-1/2" wide projects 3/4" into the chamber and is positioned 2-2/8" above the grid floor. The shock stimulus is delivered via the grid floor by a Coulbourn Instruments solid state module. The parameters of the test and the collection of data are controlled automatically. Training: Male, Fischer 344 rats obtained from Charles River (Kingston, NY) weighing more than 200 g, are individually housed with chow and water provided ad libitum. The rats are trained for two weeks to approach criterion levels in the avoidance test (90% avoidance rate). One-hour training sessions are run at about the same time each day for four or five days a week. The training session consists of 120 trials, with the conditioned stimuli presented every 30 sec. A trial begins with presentation of the conditioned stimuli (a light and a tone). If the rat responds by depressing the operant lever during the 15-second presentation of the conditioned stimuli, the trial is terminated and the animal is credited with a CAR. Failure to respond during the conditioned stimuli causes the presentation of the unconditioned stimulus (UCS), a 0.7 mA shock which is accompanied by a light and tone for five seconds. If the rat depressed the lever within the ten-second period, the shock and trial are terminated and an escape response recorded. If the rat fails to depress the lever during the UCS (shock), the trial is terminated after ten seconds of shock and the absence of a response is scored as a failure to escape. […] presses have no effect. If a rat performs at the 90% CAR level for two weeks, it is then run twice a week on the test schedule (see below) until baseline performance stabilized. Before any drug is administered, two weeks of CAR at a rate of 90% or better is required. The percent change in CAR on the drug treatment day compared to vehicle pretreatment day is the key measure. The percent change (% change) in CAR is determined using the following formula: % change CAR = ((% CAR for Day 2/% CAR for Day 1) x 100)-100 [formula] A negative number indicates a blockade of CAR, whereas a positive number would indicate increased CAR. The test results are reported as the mean % change for the group of rats. Failure to escape, a measure of the general sedative potential of the compound, was calculated for each animal as follows: % Failures = # of Failures to Escape/# of trials [formula] The % failures, viz., loss of escape, is also reported as a group mean. Failures to escape are monitored closely and a session is terminated if ten failures occurred. ED50 values and 95% confidence limits are calculated using linear regression analysis. […]

The target in data set [1] is T1, D-2 (dopamine-2) receptors (Rattus norvegicus, UniProt P61169).
T1 construct: The D2 assay employed a P2 fraction from the striatum; from tissue; host or cells: rat striatum, P2 fraction (synaptosomal membranes)
T1 sequence (P61169 whole entry): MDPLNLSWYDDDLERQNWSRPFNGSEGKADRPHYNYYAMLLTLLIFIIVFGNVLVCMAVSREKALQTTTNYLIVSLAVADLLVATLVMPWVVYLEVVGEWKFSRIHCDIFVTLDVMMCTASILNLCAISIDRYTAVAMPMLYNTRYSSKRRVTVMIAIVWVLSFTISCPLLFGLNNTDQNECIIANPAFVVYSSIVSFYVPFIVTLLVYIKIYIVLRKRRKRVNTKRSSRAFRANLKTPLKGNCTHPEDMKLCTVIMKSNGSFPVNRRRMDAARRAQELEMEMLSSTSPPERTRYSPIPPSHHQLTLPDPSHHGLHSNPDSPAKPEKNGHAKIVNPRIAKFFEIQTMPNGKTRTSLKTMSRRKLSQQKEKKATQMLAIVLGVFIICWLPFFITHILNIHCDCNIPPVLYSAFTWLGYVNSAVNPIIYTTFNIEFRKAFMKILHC
The data set is described as follows: Dopamine D2 receptor binding assay (3H-spiperone, striatal P2 fraction). Set-up: species or system male, Wistar rats. To be noted: rat striatum P2 fraction; 3H-spiperone 0.05 nM; 45 min at 37°C. An excerpt: The antipsychotic activity of the compounds of the invention may be determined by the Block of Conditioned Avoidance Responding (Rat) test (CAR), references being Cook, L. and E. Weidley in Ann. N.Y. Acad. Sci., 1957, 6, 740-752, and Davidson, A.B. and E. Weidley in Life Sci., 1976, 18, 1279-1284. A reading of -20% in the CAR test was generally taken to represent a minimum value for a compound to be designated as active at a given dose. In addition, the affinity of the compounds for several receptors found in the central nervous system was evaluated; the affinity for the D-2 (dopamine-2) receptors is also listed in Table 1. As modulation of this receptor is generally recognized to be beneficial in the treatment of schizophrenia (G. P. Reynolds Trends Pharmacol. Sci. 1992, 13, 116), affinity for this receptor indicates potential utility for the compounds. […].
The dopamine D2 binding activity of compounds was determined using a P2 fraction (synaptosomal membranes) prepared from male, Wistar rats. The D2 assay employed a P2 fraction from the striatum, the ligand ^3H-spiperone at a concentration of 0.05 nM, and 1 mM haloperidol as a blank determinant. […].
The data from this assay were analyzed by calculating the percent inhibition of the binding of the tritiated ligands by given concentrations of the test compound. KI values, where given, were obtained from the logit analysis of concentration-inhibition curves.

What is called Ki is a dissociation constant, usually derived from enzyme kinetics or from competition with a known ligand. Read a low Ki as tighter binding. With `CC(C)Oc1ccccc1[N+]1([O-])CCN(Cc2cccc(C(=O)N3CCCCC3)c2)CC1` [Compound 1, 1-[3-[[4-[2-(1-Methylethoxy)ehenyl]-4-oxide-1-piperazinyl]methyl]benzoyl]piperidine], in the data set on Rat, the Loss of escape is 44.8% and the “% CAR at 15 mg/kg” value is -91.7%. The compound further yielded a Ki in data set [1] of 140 nM.

Take `CC(C)Oc1ccccc1N1CC[N+]([O-])(Cc2cccc(C(=O)N3CCCCC3)c2)CC1` [Compound 2, 1-[3-[[4-[2-(1-Methylethoxy)phenyl]-1-piperazinyl-1-oxide]methyl]benzoyl]piperidine]: in the data set on Rat, the Loss of escape was 31.5% and the “% CAR at 15 mg/kg” value is given as -87.6%. Further, the Ki in data set [1] turned out to be 355 nM.

As to `CC(C)Oc1ccccc1C1CC[N+]([O-])(Cc2cccc(C(=O)N3[C@H](C)CCC[C@@H]3C)c2)CC1` (relative stereo) [Compound 3, 1-[3-[[4-[2-(1-Methylethoxy)phenyl]-1-piperidinyl-1-oxide]methyl]benzoyl]-cis-2.6-dimethylpiperidine], in the data set on Rat, the Loss of escape amounted to 0.4% and the “% CAR at 15 mg/kg” value is -37.7%. In data set [1], this compound displayed a Ki of 371 nM.
